Assay [1] concerns Wi-38 human lung fibroblast cells. Kind of assay: Determination of cellular ATP content. In kind it is cell-based. As to conditions: 16 hours; dose-dependent. On the procedure: Wi-38 human lung fibroblast cells were stimulated with test material for 16 hours. Thereafter ATP content were determined with the ATP bioluminescence assay kit HS II (Roche Applied Science #11699709001) according to manufacturer's recommendations. The ATP data were normalised to cellular protein determined using BCA protein assay kit (Pierce #23225).

A further assay deals with hIAPPtg DIO mice. Kind of assay: Prevention of diabetes in hIAPPtg DIO mice (oral gavage, 6 w). In kind it is in vivo. As to conditions: 100 mg/kg/day gavage, 6 w HFD.
A further assay deals with hIAPPtg mice. Nature of the assay: Diet switch in hIAPPtg mice: HFD 9 w then test material-HFD (0.8 mg/g) 7 w. In kind it is in vivo. On the procedure:
Food intake was measured weekly by giving each cage 200 g pellet. After one week, the amount of pellets consumed were calculated and adjusted according to the number of animals/cage. Body weight was measured weekly. Body composition was assessed using EchoMRI.
The potent effect of the test material on established diabetes and obesity in hIAPPtg mice on HFD formulated with 2 mg/g test material leaves open the possibility that the beneficial metabolic effects (FIG. 4, F-H) observed in these mice are secondary to the effects on weight and body fat. To address this issue, we therefore performed diet switch experiments on hIAPPtg mice using a lower test material-HFD concentration, where mice were fed HFD for 9 w and then either continued on HFD or switched to test material-HFD (0.8 mg/g) for 7 w.

Assay [2] deals with CBA mice on HFD. Kind of assay: In vivo glucose uptake ([18F]-FDG PET). Conditions: 2 mg/g in HFD, 2 w, vs HFD. The protocol: Mice were allowed to be awake and freely moving around in their cage after injection. After 180 minutes, mice were sacrificed under deep isoflurane anaesthesia and blood was removed by retrograde perfusion of PBS via the aorta. When the liver was pale, tissues were collected and scanned for a 10 minutes static uptake (nanoScan PET/CT, Mediso, Hungary). The tissues were then scanned ex vivo scanning to assess uptake in the isolated tissues. Images were reconstructed to a 0.4×0.4 mm resolution with a 3D iterative reconstruction with 4 iterations and 4 subsets (Mediso Tera-Tomo 3D), covering 98 mm axial distance, employing spike filter, delayed-window random correction, scatter and CT-based attenuation corrections. Volumes of interest were manually delineated over each tissue using imlook4d (www.dicom-port.com). Tracer uptake was quantified as standardised uptake values (SUV), using the formula: SUV=C/(l/m); with C being the measured tissue activity concentration (Bq/mL), l the injected dose (Bq), and m the body weight (g). C and l are decay corrected to the same time.

For the next assay, the system named is primary mouse islets. Nature of the assay: Unfolded protein response gene expression in islets at 22 mM glucose. In kind it is cell-based. On the procedure: For RNA purification calf muscle, iWAT, interscapular BAT, and left lateral liver lobe was crushed in a pestle using liquid nitrogen before turning to respective RNA kit. RNA from liver was prepared using Total RNA isolation Nucleospin II Kit (Macherey-Nagel #740955.50). RNA from adipose tissue was prepared using RNeasy Lipid Tissue Mini kit (Qiagen #74804). RNA from calf muscle tissue was prepared using RNeasy Fibrous Tissue Mini kit (Qiagen #74704). First strand cDNA synthesis was done using SuperScript III (First-Strand Synthesis SuperMix for qRT-PCR, Invitrogen #11752-250) according to the manufacturer's instructions. Total RNA was prepared from isolated islets using RNeasy Micro Kit (Qiagen #74004) and first strand cDNA synthesis was done using Superscript III (Invitrogen #18080-051) according to the manufacturer's instructions. Quantification of mRNA expression levels was performed essentially as previously described (Reference 3). Tyrosine 3-monooxygenase/tryptophan 5-monoxygenase activation protein, zeta polypeptide (YWHAS) was used to normalise expression levels except for islets where TBP was used.

For assay [3], the system named is primary human hepatocytes. Kind of assay: [1,2-14C] acetate incorporation into total lipids. As to conditions: 0.625, 1.25, 2.5 or 5 μM. In kind it is cell-based. The protocol: Primary human hepatocytes (65,000-130,000 cells/well in 24-well dishes) were treated with vehicle control, 0.625, 1.25, 2.5 or 5 μM test material in serum free Williams' medium E, 2 hours, before addition of 0.25 μCi [1,2-^14C]-acetate/well for an additional 4 hours. 200 μl 0.5% trypsin was used to detach the cells before addition of 800 μl chloroform/methanol (2:1) and 500 μl 4 mM MgCl2. The samples were vortexed and spun at 14,000 rpm, 2 minutes before discarding the aqueous layer. The procedure was repeated twice, first with 700 μl chloroform/methanol (2:1) and 500 μl 4 mM MgCl2 and then 400 μl chloroform/methanol (2:1) and 500 μl 4 mM MgCl2. The organic phase was transferred into a scintillation vial and evaporated to dryness by a stream of nitrogen. The residue was dissolved in 3 ml liquid scintillation cocktail (Optiphase HiSafe 3, Perkin Elmer #1200.437) and 14 C determined for 1 minute in a Wallac 1414 beta counter (Perkin Elmer). Before lipid extraction, 10 μl samples were used to determine protein concentration. 14 C-values were normalised to cellular protein concentration.

Assay [4] deals with CBA mice on HFD. Nature of the assay: Echocardiography (LV function). In kind it is in vivo. Conditions: for heart rate: anesthetized. The protocol:
Left ventricle structure and function were analysed with transthoracic, high-frequency echocardiography using the MS550D transducer. The examination was performed during light isoflurane anaesthesia (1.5-2.0% in 800 mL oxygen). Anaesthesia level was adjusted to keep the respiration rate at 80-110 breaths per minute. Left ventricular volumes were determined in B-mode using a Simpson's rule reconstruction. All images were analysed off-line in a blinded way using the Vevo LAB software 1.7.0. Stroke volume, cardiac output and heart rate were analysed, as well as wall thicknesses and left ventricle diameter. Three measurements/animal was performed for mean values.

Another assay deals with Zucker rats. Nature of the assay: Infrared thermal imaging. In kind it is in vivo. As to conditions: 10 mg/kg/day, 12 days. The protocol: Skin temperature of non-sedated Zucker rats that had been treated with test material (10 mg/kg/day) or vehicle for 12 days was recorded with an infrared camera (FLIR ix series Extech IRC30, FLIR systems Inc.) and analysed with a specific software package (FLIR QuickReport version 1.2 SP2 (1.0.1.217). 9 rats per group was used and mean and maximum skin surface temperatures were measured for each animal 2 hours after final dose administration.

Setting [5] is: test material-HFD 0.8 or 2 mg/g, 6 w.

Each structure is given as a SMILES string.

On to `O=C(Nc1nc(=O)n(Cc2ccc(Cl)cc2)s1)c1ccc(Cl)cc1` [test material, 4-chloro-N-[2-[(4-chlorophenyl)methyl]-3-oxo-1,2,4-thiadiazol-5-yl]benzamide], for which, in assay [1], the ATP/protein ratio result was “increased”. In the assay on hIAPPtg DIO mice, the “HOMA-IR and Matsuda index (systemic insulin resistance)” value is “suppressed the development of systemic insulin resistance”; the “i.p. and oral glucose-tolerance tests” value was “prevented the development of glucose intolerance and compensatory hyperinsulinemia”. Also, in the assay with hIAPPtg DIO mice (vs vehicle), the “6 h fasted blood glucose” value is on record as “averted the increase” and the “6 h fasted plasma insulin levels” value is given as “averted the increase”. In the assay on hIAPPtg mice (0.8 mg/g for 7 w), the body fat result is listed as “did not provoke body weight or body fat loss” and the body weight entry is reported as “did not provoke body weight or body fat loss”. In the assay with hIAPPtg mice (0.8 mg/g, 6 w after the switch), the HOMA-IR result is on record as “significantly reduced”, the glucose levels entry is given as “significantly reduced” and the insulin levels result is “significantly reduced”. For the same molecule, in the assay on CBA mice on HFD [2], the “[18F]-FDG uptake in calf and thigh muscle” value was “significant increase”; the “[18F]-FDG uptake in heart” value is “significant increase”. For the same molecule, in the assay on primary mouse islets, the “expression of unfolded protein response genes (ER stress)” value is recorded as “largely prevented an increased expression of unfolded protein response genes”. The lipid synthesis result in assay [3] is “dose-dependently suppressed lipid synthesis”. For the same molecule, in the assay with CBA mice on HFD [4] (0.8 mg/g), the heart rate result is “normalized”. In addition, in the assay with CBA mice on HFD [4] (2 mg/g), the heart rate entry was “reduced heart rate”. In addition, the “increase in stroke volume compared with both RD and HFD” value with CBA mice on HFD [4] (test material-HFD 0.8 mg/g and 2 mg/g, 6 w) was about 20%. Besides, in the assay on CBA mice on HFD [4] (setting [5]), the end-diastolic volume entry is on record as “normalized end-diastolic volume” and the end-systolic volume result was “dose-dependently improved, but did not fully restore”. Moreover, the skin-surface temperature result in the assay on Zucker rats is reported as “increased”.

For the origin of these results see patent US20220023269A1, “Methods Of Treating Diabetes In Severe Insulin-Resistant Diabetic Subjects” (Balticgruppen Bio AB, priority 2018, published 2022).
